Assay results published in patent US20240207221A1, “TREATMENT OF HYPERAMMONEMIA” (BIOCODEX, priority 2021, published 2024).
Like-named read-outs stand apart in the source and are kept apart here.

Tests used:
Format in all cases: in vivo
[1] = test system: methionine sulfoximine (MSO)-induced convulsions
Method: (§1) Appl. Neurobiol. 11: 129-139, as follows.
(§2) Male CBA mice (Janvier) weighing between 23 and 27 grams are used after acclimatization for at least 4 days in the animal house (t°=22±2° C.; housing conditions are as follows: SAFE “A04” food; drinking water: tap water; nycthemeral cycle: 12 h/12 h (light: 7 h/19 h-dark: 19 h/7 h)).
On reception, mice are grouped in batches of 8 to 10 in 1500 U cages (floor area 1500 cm2) with bedding and sizzle dry (SDS) enrichment, in line with the ethical recommendations of European Parliament Directive 2010/63/EU (Sep. 22, 2010).
(§3) On test day, mice are weighed, marked and placed in individual cages. At t ═O minutes, MSO (0.1 mL/10 g) is administered intraperitoneally, and the mice are carefully observed for 8 hours.
The parameters evaluated are the general condition of the animals, according to the Irwin grid (Irwin 1968), the number of convulsions, their onset times and mortality. Animals are euthanized as soon as limit points are reached, or at the end of the 8-hour observation period, according to the ANI07 procedure approved by the Ethics Committee.
(§4) Stiripentol (0.1 mL/10 g) is administered intraperitoneally at different times with respect to MSO.
Stiripentol (batch 176) was suspended in 5% (v/v) Tween 80 and 0.9% NaCl.
Results are expressed as the mean value±MSE. The statistical tests used are: • Fisher's exact test for percentages of convulsions and mortality, to determine a significant difference between groups at the 5% threshold, • A one-factor analysis of variance for the assays, to determine whether the pharmacological effect observed is significant at the 5% level (SigmaPlot 3.1 software).
Appl. Neurobiol. 11: 129-139.

[2] = test system: methionine sulfoximine (MSO)-induced hyperammonemia; settings: for ammonemia: mean ± MSE
Method: as §1, §2, §3, §4
Results are expressed as the mean value±MSE.

[3] = test system: ammonia; assay: Specific effect of stiripentol on ammonemia (without MSO), ABCAM ammonia assay kit; settings: stiripentol 300 mg/kg intraperitoneally without methionine sulfoximine, mice
Method: Blood is collected under isoflurane anesthesia by cardiac puncture (0.5 to 1.0 mL per mouse) to determine ammonia levels. In the case of brain and blood sampling, the mouse is rapidly sacrificed by decapitation: the brain is removed and frozen in liquid nitrogen. The liver can then be removed and rapidly frozen in liquid nitrogen. Samples are stored at −80° C.
Stiripentol (0.1 mL/10 g) is administered intraperitoneally at different times with respect to MSO. […]
Ammonia is determined colorimetrically using a microplate reader (Dynex, model MRX), and an ABCAM kit (ref AB83360, ammonia assay kit) containing several reagents. This kit enables quantitative enzymatic determination of ammonium present in the samples. During the assay, ammonium is converted to a product that reacts with the OxiRed probe for quantification at 570 nm using a microplate reader. […] The kit, stored at −20° C., includes the following components: • Ammonia assay buffer (25 mL): ready to use, bring to room temperature before use; • OxiRed probe (200 μL): ready to use, warm to 37° ° C. to thaw DMSO; • Developer (1 vial): reconstitute with 220 μL of Ammonia assay buffer; • enzyme Mix (1 vial): reconstitute with 220 μL of Ammonia assay buffer; • Converting Enzyme (1 vial): reconstitute with 220 μl of Ammonia assay buffer, • 10 mM NH4Cl standard (100 μL): ready to use, keep on ice during use. […]

[4] = 300 mg/kg stiripentol intraperitoneally 30 minutes prior to 50 mg/kg MSO
[5] = 300 mg/kg stiripentol intraperitoneally just prior to 50 mg/kg MSO
[6] = stiripentol 300 mg/kg intraperitoneally, mice (conclusion)

For `CC(C)(C)C(O)/C=C/c1ccc2c(c1)OCO2` (stereo not drawn) [stiripentol], the convulsion rate [1, 4] was 45%, the mortality rate [1, 4] was 25% and the convulsion rate [1, 5] was 50%. The mortality rate [1, 5] was 25%, the “effect on methionine sulfoximine-induced convulsions and mortality” value [1, 6] was “significantly reduces” and the ammonemia ([2]; 300 mg/kg stiripentol 30 minutes prior to 50 mg/kg MSO (FIG. 1)) was 448 ± 65 µM. The reduction of hyperammonemia ([2]; 300 mg/kg stiripentol 30 minutes prior to 50 mg/kg MSO, compared with the MSO-only group) was 41%, the reduction of hyperammonemia ([2]; 300 mg/kg stiripentol just prior to 50 mg/kg MSO, versus MSO only) was 32% and the ammonemia ([2]; 300 mg/kg stiripentol just prior to 50 mg/kg MSO) was 417 ± 51 µM. The “effect on MSO-induced hyperammonemia” value [2, 6] was “significantly reduces”, the “effect on ammonemia compared with the control group” value [3] was “did not alter ammonemia” and the ammonemia ([3]; plasma, mean ± MSE) was 176 ± 14 µM.
